Results as given in ChEMBL document CHEMBL1250443, “Microarray-based method for monitoring yeast overexpression strains reveals small-molecule targets in TOR pathway” (Nat Chem Biol, 2006).

Key:
[1] = Inhibition of TOR signaling in wild-type Saccharomyces cerevisiae transformed with overexpression plasmids assessed as increased DSL1 gene expression by microarray
[2] = Inhibition of TOR signaling in wild-type Saccharomyces cerevisiae transformed with overexpression plasmids assessed as decreased YNL305C gene expression by microarray
[3] = Inhibition of TOR signaling in wild-type Saccharomyces cerevisiae transformed with overexpression plasmids assessed as increased CIT1 gene expression by microarray
[4] = Inhibition of TOR signaling in wild-type Saccharomyces cerevisiae transformed with overexpression plasmids assessed as increased YFL030W gene expression by microarray
[5] = Inhibition of TOR signaling in wild-type Saccharomyces cerevisiae transformed with overexpression plasmids assessed as increased YFR044C gene expression by microarray
[6] = Inhibition of TOR signaling in wild-type Saccharomyces cerevisiae transformed with overexpression plasmids assessed as increased SSH1 gene expression by microarray
[7] = Inhibition of TOR signaling in wild-type Saccharomyces cerevisiae transformed with overexpression plasmids assessed as decreased YFL054C gene expression by microarray
[8] = Inhibition of TOR signaling in wild-type Saccharomyces cerevisiae transformed with overexpression plasmids assessed as decreased CDC42 gene expression by microarray
[9] = Inhibition of TOR signaling in wild-type Saccharomyces cerevisiae transformed with overexpression plasmids assessed as increased NAM7 gene expression by microarray
[10] = Inhibition of TOR signaling in wild-type Saccharomyces cerevisiae transformed with overexpression plasmids assessed as increased YOL157C gene expression by microarray
Saccharomyces cerevisiae [11] = assay: Increase of YDR514C gene expression in wild-type Saccharomyces cerevisiae transformed with overexpression plasmids by microarray; format: functional
[12] = Inhibition of TOR signaling in wild-type Saccharomyces cerevisiae transformed with overexpression plasmids assessed as decreased FUS3 gene expression by microarray
[13] = Inhibition of TOR signaling in wild-type Saccharomyces cerevisiae transformed with overexpression plasmids assessed as decreased YCL036W gene expression by microarray
[14] = Inhibition of TOR signaling in wild-type Saccharomyces cerevisiae transformed with overexpression plasmids assessed as increased NEM1 gene expression by microarray
[15] = Inhibition of TOR signaling in wild-type Saccharomyces cerevisiae transformed with overexpression plasmids assessed as decreased YBR284W gene expression by microarray
Saccharomyces cerevisiae [16] = assay: Increase of FMP38 gene expression in wild-type Saccharomyces cerevisiae transformed with overexpression plasmids by microarray; format: functional
Saccharomyces cerevisiae [17] = assay: Increase of GUF1 gene expression in wild-type Saccharomyces cerevisiae transformed with overexpression plasmids by microarray; format: functional
[18] = Inhibition of TOR signaling in wild-type Saccharomyces cerevisiae transformed with overexpression plasmids assessed as decreased YPL264C gene expression by microarray
Saccharomyces cerevisiae [19] = assay: Decrease of YKR75C gene expression in wild-type Saccharomyces cerevisiae transformed with overexpression plasmids by microarray; format: functional
[20] = Inhibition of TOR signaling in wild-type Saccharomyces cerevisiae transformed with overexpression plasmids assessed as increased NOP7 gene expression by microarray
[21] = Inhibition of TOR signaling in wild-type Saccharomyces cerevisiae transformed with overexpression plasmids assessed as decreased GIS4 gene expression by microarray
[22] = Inhibition of TOR signaling in wild-type Saccharomyces cerevisiae transformed with overexpression plasmids assessed as increased FBP1 gene expression by microarray
[23] = Inhibition of TOR signaling in wild-type Saccharomyces cerevisiae transformed with overexpression plasmids assessed as increased UTP8 gene expression by microarray
[24] = Inhibition of TOR signaling in wild-type Saccharomyces cerevisiae transformed with overexpression plasmids assessed as increased TIF2 gene expression by microarray
[25] = Inhibition of TOR signaling in wild-type Saccharomyces cerevisiae transformed with overexpression plasmids assessed as decreased HES1 gene expression by microarray
[26] = Inhibition of TOR signaling in wild-type Saccharomyces cerevisiae transformed with overexpression plasmids assessed as increased PDR17 gene expression by microarray
[27] = Inhibition of TOR signaling in wild-type Saccharomyces cerevisiae transformed with overexpression plasmids assessed as decreased RTT101 gene expression by microarray
[28] = Inhibition of TOR signaling in wild-type Saccharomyces cerevisiae transformed with overexpression plasmids assessed as decreased YDL186W gene expression by microarray
Saccharomyces cerevisiae [29] = assay: Decrease of RIM11 gene expression in wild-type Saccharomyces cerevisiae transformed with overexpression plasmids by microarray; format: functional
[30] = Inhibition of TOR signaling in wild-type Saccharomyces cerevisiae transformed with overexpression plasmids assessed as decreased PEX7 gene expression by microarray
[31] = Inhibition of TOR signaling in wild-type Saccharomyces cerevisiae transformed with overexpression plasmids assessed as decreased SHO1 gene expression by microarray
[32] = Inhibition of TOR signaling in wild-type Saccharomyces cerevisiae transformed with overexpression plasmids assessed as decreased SET4 gene expression by microarray
[33] = Inhibition of TOR signaling in wild-type Saccharomyces cerevisiae transformed with overexpression plasmids assessed as decreased VTI1 gene expression by microarray
[34] = Inhibition of TOR signaling in wild-type Saccharomyces cerevisiae transformed with overexpression plasmids assessed as decreased REH1 gene expression by microarray
[35] = Inhibition of TOR signaling in wild-type Saccharomyces cerevisiae transformed with overexpression plasmids assessed as decreased DCR2 gene expression by microarray
[36] = Inhibition of TOR signaling in wild-type Saccharomyces cerevisiae transformed with overexpression plasmids assessed as increased YPR153W gene expression by microarray
[37] = Inhibition of TOR signaling in wild-type Saccharomyces cerevisiae transformed with overexpression plasmids assessed as increased NCL1 gene expression by microarray
[38] = Inhibition of TOR signaling in wild-type Saccharomyces cerevisiae transformed with overexpression plasmids assessed as increased HCA4 gene expression by microarray
[39] = Inhibition of TOR signaling in wild-type Saccharomyces cerevisiae transformed with overexpression plasmids assessed as decreased YNL058C gene expression by microarray
[40] = Inhibition of TOR signaling in wild-type Saccharomyces cerevisiae transformed with overexpression plasmids assessed as increased YLR346C gene expression by microarray
[41] = Inhibition of TOR signaling in wild-type Saccharomyces cerevisiae transformed with overexpression plasmids assessed as increased URA5 gene expression by microarray
[42] = Inhibition of TOR signaling in wild-type Saccharomyces cerevisiae transformed with overexpression plasmids assessed as increased YOR042W gene expression by microarray
[43] = Inhibition of TOR signaling in wild-type Saccharomyces cerevisiae transformed with overexpression plasmids assessed as increased LIN1 gene expression by microarray
[44] = Inhibition of TOR signaling in wild-type Saccharomyces cerevisiae transformed with overexpression plasmids assessed as increased CDC5 gene expression by microarray
[45] = Inhibition of TOR signaling in wild-type Saccharomyces cerevisiae transformed with overexpression plasmids assessed as increased WRS1 gene expression by microarray

CO[C@H]1C[C@@H]2CC[C@@H](C)[C@@](O)(O2)C(=O)C(=O)N2CCCC[C@H]2C(=O)O[C@H]([C@H](C)C[C@@H]2CC[C@@H](O)[C@H](OC)C2)CC(=O)[C@H](C)/C=C(\C)[C@@H](O)[C@@H](OC)C(=O)[C@H](C)C[C@H](C)/C=C/C=C/C=C/1C [SIROLIMUS] gave a fold change (FC) [1] of 2.4, a fold change (FC) [2] of -2.5 and a fold change (FC) [3] of 2.1. The fold change (FC) [4] was 3.2, the fold change (FC) [5] was 4.7 and the fold change (FC) [6] was 2.3. It also gave a fold change (FC) [7] of -2.5, a fold change (FC) [8] of -2 and a fold change (FC) [9] of 6.4. The fold change (FC) [10] was 7.1, the “fold change (FC)” value (Saccharomyces cerevisiae [11]) was -3.1 and the fold change (FC) [12] was -3.2. The fold change (FC) [13] was -2.1, the fold change (FC) [14] was 2.2 and the fold change (FC) [15] was -3.2. The “fold change (FC)” value (Saccharomyces cerevisiae [16]) was -3.2, the “fold change (FC)” value (Saccharomyces cerevisiae [17]) was -3.1 and the fold change (FC) [18] was -3.2. For the same molecule, the “fold change (FC)” value (Saccharomyces cerevisiae [19]) was -2.5, the fold change (FC) [20] was 2.4 and the fold change (FC) [21] was -7.2. It also gave a fold change (FC) [22] of 2.1, a fold change (FC) [23] of 2.6 and a fold change (FC) [24] of 2.6. The fold change (FC) [25] was -3.1, the fold change (FC) [26] was 2.9 and the fold change (FC) [27] was -3.3. The fold change (FC) [28] was -3.3, the “fold change (FC)” value (Saccharomyces cerevisiae [29]) was 2.9 and the fold change (FC) [30] was -2.8. The fold change (FC) [31] was -4.4, the fold change (FC) [32] was -2.2 and the fold change (FC) [33] was -2.8. It also gave a fold change (FC) [34] of -2.2, a fold change (FC) [35] of -5.9 and a fold change (FC) [36] of 2.1. It also gave a fold change (FC) [37] of 7.4, a fold change (FC) [38] of 2.9 and a fold change (FC) [39] of -2.1. It also gave a fold change (FC) [40] of 2.7, a fold change (FC) [41] of 2.2 and a fold change (FC) [42] of 2.7. For the same molecule, the fold change (FC) [43] was 2.5, the fold change (FC) [44] was 3.4 and the fold change (FC) [45] was 2.8.
